From ChEMBL document CHEMBL4811298, “Discovery of novel class of histone deacetylase inhibitors as potential anticancer agents” (Bioorg Med Chem, 2021)
Activity calls are given as the source filed them. The rule behind the calls is not given here.

Key:
MCF7 [1] = assay: Antiproliferative activity against human MCF7 cells assessed as reduction in cell viability incubated for 48 hrs by SRB assay; assay type: functional, cell-based; conditions: MCF7, 48 h
A549 = assay: Antiproliferative activity against human A549 cells assessed as reduction in cell viability incubated for 48 hrs by SRB assay; assay type: functional, cell-based; conditions: A549, 48 h
MCF7 [2] = assay: Induction of apoptosis in human MCF7 cells assessed as downregulation of c-Myc gene expression at 1 uM measured after 24 hrs whole transcriptome analysis; assay type: functional, cell-based
Histone deacetylase 1 = Histone deacetylase 1 (Homo sapiens, UniProt Q13547); assay: (§1) Inhibition of C-terminal FLAG/His-tagged human recombinant HDAC1 (1 to 482 residues) expressed in baculovirus-infected Sf9 cells assessed as reduction in 7-amino-4-methylcoumarin release using fluorogenic HDAC substrate 3 measured every 5 mins by fluorescence based analysis
Histone deacetylase 2 = Histone deacetylase 2 (Homo sapiens, UniProt Q92769); assay type: cell-based, Sf9
[3] = molecular target: Histone deacetylase 3/Nuclear receptor corepressor 2 (HDAC3/NCoR2) (Homo sapiens, UniProt O15379); assay: as §1, with “His-tagged” for “FLAG/His-tagged”, “full length HDAC3” for “HDAC1”, “428 residues)/N-terminal GST-tagged human recombinant NCOR2 (395 to 489” for “482”
Histone deacetylase 4 = Histone deacetylase 4 (Homo sapiens, UniProt P56524); assay: Inhibition of N-terminal GST-tagged/C-terminal His-tagged human recombinant HDAC4 (627 to 1084 residues) expressed in baculovirus-infected Sf9 cells assessed as reduction in 7-amino-4-methylcoumarin release measured every 5 mins by fluorescence based analysis
Histone deacetylase 5 [4] = molecular target: T1, Histone deacetylase 5 (Homo sapiens, UniProt Q9UQL6); assay: Inhibition of N-terminal GST-tagged human recombinant full length HDAC5 expressed in baculovirus-infected Sf9 cells assessed as reduction in 7-amino-4-methylcoumarin release measured every 5 mins by fluorescence based analysis
Histone deacetylase 7 = molecular target: T2, Histone deacetylase 7 (Homo sapiens, UniProt Q8WUI4); assay: Inhibition of N-terminal GST-tagged human HDAC7 (518 to end residues) expressed in baculovirus-infected Sf9 cells assessed as reduction in 7-amino-4-methylcoumarin release measured every 5 mins by fluorescence based analysis
T2 sequence (Q8WUI4 whole entry): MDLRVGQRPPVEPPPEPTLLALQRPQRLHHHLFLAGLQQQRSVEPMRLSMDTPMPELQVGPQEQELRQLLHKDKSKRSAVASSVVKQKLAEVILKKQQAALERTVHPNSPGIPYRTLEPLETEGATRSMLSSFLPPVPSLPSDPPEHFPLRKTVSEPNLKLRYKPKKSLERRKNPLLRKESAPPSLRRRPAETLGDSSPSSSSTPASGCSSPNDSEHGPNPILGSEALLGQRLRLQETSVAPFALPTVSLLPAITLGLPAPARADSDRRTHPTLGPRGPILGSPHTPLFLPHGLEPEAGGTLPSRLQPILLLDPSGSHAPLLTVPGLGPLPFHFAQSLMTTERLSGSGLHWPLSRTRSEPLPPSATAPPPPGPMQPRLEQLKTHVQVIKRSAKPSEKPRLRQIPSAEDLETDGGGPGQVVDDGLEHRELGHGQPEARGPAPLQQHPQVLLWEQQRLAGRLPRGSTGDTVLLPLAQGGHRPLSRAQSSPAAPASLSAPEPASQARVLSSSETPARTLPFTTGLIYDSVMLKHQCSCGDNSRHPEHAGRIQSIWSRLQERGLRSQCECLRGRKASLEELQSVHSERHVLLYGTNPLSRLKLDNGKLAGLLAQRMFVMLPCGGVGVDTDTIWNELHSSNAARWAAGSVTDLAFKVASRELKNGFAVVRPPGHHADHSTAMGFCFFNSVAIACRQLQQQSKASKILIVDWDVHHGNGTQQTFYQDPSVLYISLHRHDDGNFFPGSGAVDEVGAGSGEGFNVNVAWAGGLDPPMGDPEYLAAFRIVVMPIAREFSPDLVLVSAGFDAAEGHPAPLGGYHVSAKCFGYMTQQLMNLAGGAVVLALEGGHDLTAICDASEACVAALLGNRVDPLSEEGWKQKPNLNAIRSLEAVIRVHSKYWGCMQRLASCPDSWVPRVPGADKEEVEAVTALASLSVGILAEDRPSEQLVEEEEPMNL

Histone deacetylase 9 = Histone deacetylase 9 (Homo sapiens, UniProt Q9UKV0); assay: Inhibition of C-terminal His-tagged human HDAC9 (604 to 1066 residues) expressed in baculovirus-infected Sf9 cells assessed as reduction in 7-amino-4-methylcoumarin release measured every 5 mins by fluorescence based analysis
MCF7 [5] = assay: Induction of apoptosis in human MCF7 cells assessed as downregulation of c-Myc protein expression at 1 to 3 uM measured after 48 hrs western blot analysis; assay type: functional, cell-based; conditions: dose 1-3 µM
MCF7 [6] = assay: Induction of apoptosis in human MCF7 cells assessed as increase in caspase 3/7 activity at 1 to 3 uM measured after 48 hrs by ELISA; assay type: functional, cell-based; conditions: dose 1-3 µM
MCF7 [7] = assay: Induction of apoptosis in human MCF7 cells assessed as reduction in Bcl2 gene expression at 3 uM incubated for 24 hrs by whole transcriptome analysis; assay type: functional, cell-based
MCF7 [8] = assay: Induction of apoptosis in human MCF7 cells assessed as reduction in Bcl3 gene expression at 3 uM incubated for 24 hrs by whole transcriptome analysis; assay type: functional, cell-based
MCF7 [9] = assay: Upregulation of NFkB2 gene expression in human MCF7 cells at 3 uM incubated for 24 hrs by whole transcriptome analysis; assay type: functional, cell-based
MCF7 [10] = assay: Induction of cell cycle arrest in human MCF7 cells assessed as accumulation at G2/M phase at 1 uM incubated for 4 hrs by PI staining based flow cytometric analysis; assay type: functional
MCF7 [11] = assay: Induction of cell cycle arrest in human MCF7 cells assessed as accumulation at G2/M phase at 1 uM incubated for 24 hrs by PI staining based flow cytometric analysis; assay type: functional
MCF7 [12] = assay: Induction of cell cycle arrest in human MCF7 cells assessed as accumulation at subG1 phase at 1 uM incubated for 24 to 72 hrs by PI staining based flow cytometric analysis; assay type: functional; conditions: time 24-72 hrs
MCF7 [13] = assay: Downregulation of SIRT2 gene expression in human MCF7 cells at 3 uM incubated for 24 hrs by whole transcriptome analysis; assay type: functional, cell-based
MCF7 [14] = assay: Downregulation of SIRT4 gene expression in human MCF7 cells at 3 uM incubated for 24 hrs by whole transcriptome analysis; assay type: functional, cell-based
[15] = molecular target: Histone deacetylase (Homo sapiens) (UniProt Q13547+O15379+Q9UBN7+Q92769+Q9UQL6+Q8WUI4+Q9BY41+Q96DB2+P56524+Q9UKV0+Q969S8); assay: Inhibition of HDAC in human MCF7 cells assessed as increase in acetylated histone H4 mRNA level at 3 uM incubated for 24 hrs by whole transcriptome analysis; assay type: cell-based
MCF7 [16] = assay: Induction of cell cycle arrest in human MCF7 cells assessed as accumulation at G1/S phase at 1 uM incubated for 4 hrs by PI staining based flow cytometric analysis; assay type: functional
MCF7 [17] = assay: Upregulation of SIRT2 gene expression in human MCF7 cells at 3 uM incubated for 24 hrs by whole transcriptome analysis; assay type: functional, cell-based
MCF7 [18] = assay: Upregulation of SIRT4 gene expression in human MCF7 cells at 3 uM incubated for 24 hrs by whole transcriptome analysis; assay type: functional, cell-based
MCF7 [19] = assay: Induction of cell cycle arrest in human MCF7 cells assessed downregulation of CDK2 gene expression at 3 uM incubated for 24 hrs by whole transcriptome analysis; assay type: functional, cell-based
MCF7 [20] = assay: Induction of cell cycle arrest in human MCF7 cells assessed downregulation of CDK4 gene expression at 3 uM incubated for 24 hrs by whole transcriptome analysis; assay type: functional, cell-based
MCF7 [21] = assay: Induction of cell cycle arrest in human MCF7 cells assessed downregulation of CDK6 gene expression at 3 uM incubated for 24 hrs by whole transcriptome analysis; assay type: functional, cell-based
MCF7 [22] = assay: Downregulation of NFkB2 gene expression in human MCF7 cells at 3 uM incubated for 24 hrs by whole transcriptome analysis; assay type: functional, cell-based
MCF7 [23] = assay: Induction of cell cycle arrest in human MCF7 cells assessed downregulation of CDK1 gene expression at 3 uM incubated for 24 hrs by whole transcriptome analysis; assay type: functional, cell-based
MCF7 [24] = assay: Induction of cell cycle arrest in human MCF7 cells assessed downregulation of E2F1 gene expression at 3 uM incubated for 24 hrs by whole transcriptome analysis; assay type: functional, cell-based
MCF7 [25] = assay: Induction of cell cycle arrest in human MCF7 cells assessed downregulation of RB1 gene expression at 3 uM incubated for 24 hrs by whole transcriptome analysis; assay type: functional, cell-based
Histone deacetylase 5 [26] = molecular target: T1, Histone deacetylase 5; assay: Potency index, ratio of vorinostat IC50 to test compound IC50 for Inhibition of N-terminal GST-tagged human recombinant full length HDAC5 expressed in baculovirus-infected Sf9 cells assessed as reduction in 7-amino-4-methylcoumarin release measured every 5 mins by fluorescence based analysis

T1 sequence (Q9UQL6 whole entry): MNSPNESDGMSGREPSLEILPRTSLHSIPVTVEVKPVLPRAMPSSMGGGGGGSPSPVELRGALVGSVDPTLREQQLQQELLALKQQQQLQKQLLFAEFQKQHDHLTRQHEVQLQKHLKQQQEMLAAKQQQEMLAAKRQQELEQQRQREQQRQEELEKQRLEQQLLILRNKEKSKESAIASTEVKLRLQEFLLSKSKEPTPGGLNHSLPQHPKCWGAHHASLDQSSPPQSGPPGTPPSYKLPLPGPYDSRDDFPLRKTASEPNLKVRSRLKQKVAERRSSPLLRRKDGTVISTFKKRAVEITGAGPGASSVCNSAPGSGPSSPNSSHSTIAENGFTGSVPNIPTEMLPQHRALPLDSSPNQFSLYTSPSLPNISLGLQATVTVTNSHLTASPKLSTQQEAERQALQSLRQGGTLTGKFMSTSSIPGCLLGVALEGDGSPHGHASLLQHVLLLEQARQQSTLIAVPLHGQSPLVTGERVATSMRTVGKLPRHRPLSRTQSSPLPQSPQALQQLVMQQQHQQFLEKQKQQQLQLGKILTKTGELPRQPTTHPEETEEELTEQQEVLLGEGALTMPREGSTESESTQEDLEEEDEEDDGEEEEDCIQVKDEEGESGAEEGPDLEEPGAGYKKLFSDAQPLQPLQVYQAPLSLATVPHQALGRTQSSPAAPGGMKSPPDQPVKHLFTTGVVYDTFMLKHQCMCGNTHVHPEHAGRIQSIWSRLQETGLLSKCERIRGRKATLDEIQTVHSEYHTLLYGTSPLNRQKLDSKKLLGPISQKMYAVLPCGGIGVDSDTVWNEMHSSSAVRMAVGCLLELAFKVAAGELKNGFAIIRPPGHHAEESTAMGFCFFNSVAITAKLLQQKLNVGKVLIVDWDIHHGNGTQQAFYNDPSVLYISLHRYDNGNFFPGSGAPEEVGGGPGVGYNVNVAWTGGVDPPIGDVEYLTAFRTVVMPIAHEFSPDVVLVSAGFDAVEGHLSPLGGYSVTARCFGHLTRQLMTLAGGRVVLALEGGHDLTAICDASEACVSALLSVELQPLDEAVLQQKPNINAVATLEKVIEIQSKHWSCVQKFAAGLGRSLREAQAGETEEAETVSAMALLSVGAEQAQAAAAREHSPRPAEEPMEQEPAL
Histone deacetylase 4, sequence (P56524 whole entry, the tested form may be a part): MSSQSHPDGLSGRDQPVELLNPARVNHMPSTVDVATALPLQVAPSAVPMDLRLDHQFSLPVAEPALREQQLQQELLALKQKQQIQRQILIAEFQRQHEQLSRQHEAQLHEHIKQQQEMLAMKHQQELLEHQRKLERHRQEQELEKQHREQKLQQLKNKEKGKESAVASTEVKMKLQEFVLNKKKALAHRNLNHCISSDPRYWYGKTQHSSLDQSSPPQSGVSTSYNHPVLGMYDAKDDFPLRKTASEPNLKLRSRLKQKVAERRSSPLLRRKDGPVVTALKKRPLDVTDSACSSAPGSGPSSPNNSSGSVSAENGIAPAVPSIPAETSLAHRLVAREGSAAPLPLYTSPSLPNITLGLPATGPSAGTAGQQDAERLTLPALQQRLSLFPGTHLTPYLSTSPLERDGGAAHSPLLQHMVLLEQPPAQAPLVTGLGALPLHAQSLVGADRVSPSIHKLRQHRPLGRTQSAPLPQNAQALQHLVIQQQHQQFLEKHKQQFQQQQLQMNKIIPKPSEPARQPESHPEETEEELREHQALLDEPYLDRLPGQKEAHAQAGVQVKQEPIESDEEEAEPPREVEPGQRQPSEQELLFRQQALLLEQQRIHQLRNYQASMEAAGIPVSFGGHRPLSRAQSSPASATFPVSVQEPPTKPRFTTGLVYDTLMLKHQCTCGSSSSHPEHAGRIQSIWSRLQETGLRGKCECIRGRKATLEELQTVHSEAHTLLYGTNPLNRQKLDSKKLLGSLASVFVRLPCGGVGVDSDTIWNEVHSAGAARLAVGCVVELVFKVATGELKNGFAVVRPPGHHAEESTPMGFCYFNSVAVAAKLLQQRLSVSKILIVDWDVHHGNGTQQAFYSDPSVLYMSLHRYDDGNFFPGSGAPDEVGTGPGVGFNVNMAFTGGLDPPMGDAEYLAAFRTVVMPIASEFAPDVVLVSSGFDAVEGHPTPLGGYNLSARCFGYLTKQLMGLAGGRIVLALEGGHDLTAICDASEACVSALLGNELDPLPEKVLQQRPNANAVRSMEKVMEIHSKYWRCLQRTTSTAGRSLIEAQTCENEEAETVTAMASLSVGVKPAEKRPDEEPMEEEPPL
Histone deacetylase 9, sequence (Q9UKV0 whole entry, the tested form may be a part): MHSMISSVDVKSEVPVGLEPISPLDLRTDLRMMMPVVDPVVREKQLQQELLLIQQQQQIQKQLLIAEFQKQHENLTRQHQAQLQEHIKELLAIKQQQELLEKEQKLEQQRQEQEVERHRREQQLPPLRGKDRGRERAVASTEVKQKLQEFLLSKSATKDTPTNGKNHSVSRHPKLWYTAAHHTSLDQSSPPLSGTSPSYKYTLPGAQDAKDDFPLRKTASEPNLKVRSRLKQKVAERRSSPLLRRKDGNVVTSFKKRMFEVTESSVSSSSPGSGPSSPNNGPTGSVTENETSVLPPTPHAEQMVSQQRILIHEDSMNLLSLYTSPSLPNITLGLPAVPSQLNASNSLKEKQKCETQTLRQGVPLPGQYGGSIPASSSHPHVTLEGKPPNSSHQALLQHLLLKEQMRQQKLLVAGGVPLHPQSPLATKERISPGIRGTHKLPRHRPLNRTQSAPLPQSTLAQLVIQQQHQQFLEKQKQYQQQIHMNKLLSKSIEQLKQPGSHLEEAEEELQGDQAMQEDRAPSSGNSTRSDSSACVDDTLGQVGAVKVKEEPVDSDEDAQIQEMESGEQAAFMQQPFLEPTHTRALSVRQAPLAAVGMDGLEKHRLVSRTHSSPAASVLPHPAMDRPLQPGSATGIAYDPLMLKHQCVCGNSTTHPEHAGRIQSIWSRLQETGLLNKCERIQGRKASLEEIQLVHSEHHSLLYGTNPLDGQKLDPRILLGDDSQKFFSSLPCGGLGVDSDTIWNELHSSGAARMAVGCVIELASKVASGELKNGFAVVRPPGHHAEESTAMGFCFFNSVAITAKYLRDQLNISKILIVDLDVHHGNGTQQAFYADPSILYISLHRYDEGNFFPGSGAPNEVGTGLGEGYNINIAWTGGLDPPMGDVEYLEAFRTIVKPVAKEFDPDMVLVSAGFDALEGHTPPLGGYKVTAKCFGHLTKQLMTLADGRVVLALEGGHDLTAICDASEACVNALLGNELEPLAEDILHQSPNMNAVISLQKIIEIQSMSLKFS
Histone deacetylase 2, sequence (Q92769 whole entry): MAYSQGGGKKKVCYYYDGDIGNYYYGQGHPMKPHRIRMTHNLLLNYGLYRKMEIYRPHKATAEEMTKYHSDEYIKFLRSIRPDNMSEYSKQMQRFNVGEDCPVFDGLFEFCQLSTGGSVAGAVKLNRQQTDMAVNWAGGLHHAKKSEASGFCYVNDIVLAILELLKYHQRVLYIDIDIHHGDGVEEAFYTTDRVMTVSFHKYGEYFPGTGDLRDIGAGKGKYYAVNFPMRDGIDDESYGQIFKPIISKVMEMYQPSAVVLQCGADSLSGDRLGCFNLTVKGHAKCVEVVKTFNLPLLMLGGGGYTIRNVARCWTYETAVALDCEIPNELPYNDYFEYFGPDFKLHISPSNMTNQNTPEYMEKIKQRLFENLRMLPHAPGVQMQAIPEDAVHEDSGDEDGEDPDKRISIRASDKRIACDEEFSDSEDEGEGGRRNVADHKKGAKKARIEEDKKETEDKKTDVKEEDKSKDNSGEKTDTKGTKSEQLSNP
Histone deacetylase 1, sequence (Q13547 whole entry, the tested form may be a part): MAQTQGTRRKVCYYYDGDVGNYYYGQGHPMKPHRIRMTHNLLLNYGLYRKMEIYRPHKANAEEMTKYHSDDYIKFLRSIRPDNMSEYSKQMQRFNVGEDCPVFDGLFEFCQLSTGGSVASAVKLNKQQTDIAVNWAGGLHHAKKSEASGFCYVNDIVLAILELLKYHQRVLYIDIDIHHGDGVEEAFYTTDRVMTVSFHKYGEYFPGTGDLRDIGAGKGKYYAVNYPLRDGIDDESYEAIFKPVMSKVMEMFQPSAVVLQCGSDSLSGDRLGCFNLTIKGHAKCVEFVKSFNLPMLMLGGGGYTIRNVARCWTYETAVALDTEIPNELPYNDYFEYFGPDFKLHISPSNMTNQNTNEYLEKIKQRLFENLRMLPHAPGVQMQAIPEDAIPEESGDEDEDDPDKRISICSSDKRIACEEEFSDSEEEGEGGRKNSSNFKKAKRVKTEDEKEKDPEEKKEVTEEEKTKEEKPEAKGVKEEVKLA

Structure (SMILES) | IC50 (MCF7 [1]) [nM] | IC50 (A549) [nM] | Activity (MCF7 [2]) | IC50 (Histone deacetylase 1) [nM] | IC50 (Histone deacetylase 2) [nM] | IC50 [3] [nM] | IC50 (Histone deacetylase 4) [nM] | IC50 (Histone deacetylase 5 [4]) [nM] | IC50 (Histone deacetylase 7) [nM] | IC50 (Histone deacetylase 9) [nM] | Activity (MCF7 [5]) | Activity (MCF7 [6]) | Activity (MCF7 [7]) | Activity (MCF7 [8]) | Activity (MCF7 [9]) | Activity (MCF7 [10]) | Activity (MCF7 [11]) | Activity (MCF7 [12]) | inhibition (MCF7 [13]) | inhibition (MCF7 [14]) | other results
COc1cccc2c1C(=O)c1c(O)c3c(c(O)c1C2=O)C[C@@](O)(C(=O)CO)C[C@@H]3O[C@H]1C[C@H](N)[C@H](O)[C@H](C)O1 [DOXORUBICIN] | 38 | 90 |  |  |  |  |  |  |  |  |  |  |  |  |  |  |  |  |  |  | 
CC(C)(C)Nc1c(-c2cccc(C(=O)Nc3ccc(F)cc3N)c2)nc2ccccn12 | 700 | > 10000 | Active | > 10000 | > 10000 | 2120 | > 10000 | 12400 | 6100 | 1300 | Active | Active | Active | Active | Active | Active | Active | Active | Active | Active | inhibition [15]: Active
O=C(CCCCCCC(=O)Nc1ccccc1)NO |  |  | Active |  |  |  |  |  |  |  | Active | Active |  | inactive | Active |  | Active |  |  |  | Activity (MCF7 [16]): Active; Activity (MCF7 [17]): Active; Activity (MCF7 [18]): Active
CC(C)(C)Nc1c(-c2ccc(-c3noc(C(F)(F)F)n3)cc2)nc2ccccn12 | > 10000 | > 10000 |  | > 10000 | > 10000 | > 10000 | 3580 | 812 | 6900 | 2310 |  | Active | Active | Active |  | Active | Active | Active | Active | Active | Activity (MCF7 [19]): Active; Activity (MCF7 [20]): Active; Activity (MCF7 [21]): Active; inhibition (MCF7 [22]): Active; Activity (MCF7 [23]): Active; Activity (MCF7 [24]): Active; Activity (MCF7 [25]): Active
CC(C)(C)Nc1c(-c2cccc(-c3nc4cc(-c5noc(C(F)(F)F)n5)ccc4[nH]3)c2)nc2ccccn12 | > 10000 | > 10000 | Active | > 10000 | > 10000 | > 10000 | 1650 | 310 | 4850 | 818 |  | Active | Active | Active |  |  |  | inactive | Active | Active | Activity (MCF7 [16]): Active; Activity (MCF7 [19]): Active; Activity (MCF7 [20]): Active; Activity (MCF7 [21]): Active; inhibition (MCF7 [22]): Active; Activity (MCF7 [23]): Active; Activity (MCF7 [24]): Active; Activity (MCF7 [25]): Active; Ratio IC50 (Histone deacetylase 5 [26]): > 33
O=C(NC1CCN(Cc2ccccc2)C1)c1ccc(-c2noc(C(F)(F)F)n2)cc1 (stereo not given) |  |  |  |  |  | 1090 | 19 | 61 |  | 48 |  |  |  |  |  |  |  |  |  |  | 
